# US9517994B2, “Antibacterial agents: phloroglucinol derivatives” (Rutgers, the State University of New Jersey, priority 2012, dated 2016)
# Experiments:
# [1] = target: E. coli RNA polymerase σ70 holoenzyme (Escherichia coli, UniProt P0A8T7+P0A8V2); assay: Fluorescence-detected assay of inhibition of Escherichia coli RNA polymerase; format: biochemical; details: RiboGreen fluorescence, read-out: IC50 Ec RNAP
# Experimental: (§1) Fluorescence-detected RNA polymerase assays with E. coli RNA polymerase were performed by a modification of the procedure of Kuhlman et al., 2004 (Kuhlman, P., Duff, H. & Galant, A. (2004) Anal. Biochem. 324, 183-190). Reaction mixtures contained (20 μl): 0-100 nM test compound, 75 nM E. coli RNA polymerase σ^70 holoenzyme, 20 nM 384 by DNA fragment containing the bacteriophage T4 N25 promoter, 100 μM ATP, 100 μM GTP, 100 μM UTP, 100 μM CTP, 50 mM Tris-HCl, pH 8.0, 100 mM KCl, 10 mM MgCl2, 1 mM DTT, 10 μg/ml bovine serum albumin, and 5.5% glycerol. Reaction components other than DNA and NTPs were pre-incubated for 10 mm at 37° C. Reactions were carried out by addition of DNA and incubation for 5 min at 37° C., followed by addition of NTPs and incubation for 60 min at 37° C. DNA was removed by addition of 1 μl 5 mM CaCl2 and 2 U DNaseI (Ambion, Inc.), followed by incubation for 90 min at 37° C. RNA was quantified by addition of 100 μl RiboGreen RNA Quantitation Reagent (Invitrogen, Inc.; 1:500 dilution in Tris-HCl, pH 8.0, 1 mM EDTA), followed by incubation for 10 min at 25° C., followed by measurement of fluorescence intensity [excitation wavelength=485 nm and emission wavelength=535 nm; QuantaMaster QMI spectrofluorometer (PTI, Inc.)]. IC50 was defined as the concentration of inhibitor resulting in 50% inhibition of RNA polymerase activity.
# [2] = target: M tuberculosis RNA polymerase core enzyme + M. tuberculosis σA (Mycobacterium tuberculosis, UniProt P9WGY7+P9WGY9); assay: Fluorescence-detected assay of inhibition of Mycobacterium tuberculosis RNA polymerase; format: biochemical; details: read-out: IC50 Mt RNAP
# Experimental: as §1
# (§2) Fluorescence-detected RNA polymerase assays with M tuberculosis RNA polymerase were performed as in Example 17.1, using reaction mixtures containing (20 μl): 0-100 nM test compound, 75 nM M tuberculosis RNA polymerase core enzyme, 300 nM M. tuberculosis σ^A, 20 nM 384 by DNA fragment containing the bacteriophage T4 N25 promoter, 100 μM ATP, 100 μM GTP, 100 μM UTP, 100 μM CTP, 40 mM Tris-HCl, pH 8.0, 80 mM NaCl, 5 mM MgCl2, 2.5 mM DTT, and 12.7% glycerol. IC50 was defined as the concentration of inhibitor resulting in 50% inhibition of RNA polymerase activity.
# [3] = target: S. aureus RNA polymerase core enzyme + S. aureus σA (Staphylococcus aureus, UniProt P47768+Q2G0N5); assay: Fluorescence-detected assay of inhibition of Staphylococcus aureus RNA polymerase; format: biochemical; details: read-out: IC50 Sa RNAP
# Experimental: as §1
# as §2, with “S. aureus” for “M tuberculosis”, “S. aureus” for “M. tuberculosis”
# [4] = tested on: Bacillus anthracis Vollum 1B; assay: microbe, parasite or virus in culture; format: cell-based; details: VOLLUM1B, read-out: MIC B. anthracis Vollum-1b
# [5] = tested on: Francisella tularensis SCHU4; assay: microbe, parasite or virus in culture; format: cell-based; details: SCHU4, read-out: MIC F. tularensis SCHU4
# Burkholderia mallei CHN7 = assay: microbe, parasite or virus in culture; format: cell-based; details: CHN7, read-out: MIC B. mallei CHN7
# [6] = tested on: Mycobacterium tuberculosis H37Rv; assay: MIC, microplate Alamar Blue assay; details: read-out: MIC M. tuberculosis H37Rv
# [7] = tested on: Staphylococcus aureus ATCC 12600; assay: MIC, spiral gradient endpoint assay; details: ATCC12600, 16 h, read-out: MIC S. aureus 12600
# [8] = tested on: Enterococcus faecalis ATCC 19433; assay: MIC, spiral gradient endpoint assay; details: ATCC19433, 16 h, read-out: MIC E. faecalis 19433
# [9] = tested on: Escherichia coli D21f2tolC; assay: MIC, spiral gradient endpoint assay; details: 16 h, read-out: MIC E. coli D21f2tolC
# [10] = tested on: Haemophilus influenzae ATCC 33391; assay: MIC, spiral gradient endpoint assay (GC II agar, 5% CO2); details: ATCC33391, read-out: MIC H. influenzae 33391
# H. influenzae 49247 = assay: as above; details: for MIC: Haemophilus influenzae, 49247, read-out: MIC H. influenzae 49247
# [11] = tested on: Moraxella catarrhalis ATCC 25238; assay: as above; details: ATCC25238, read-out: MIC M. catarrhalis 25238
# Chain of S. aureus RNA polymerase core enzyme + S. aureus σA (P0A0J0 whole entry): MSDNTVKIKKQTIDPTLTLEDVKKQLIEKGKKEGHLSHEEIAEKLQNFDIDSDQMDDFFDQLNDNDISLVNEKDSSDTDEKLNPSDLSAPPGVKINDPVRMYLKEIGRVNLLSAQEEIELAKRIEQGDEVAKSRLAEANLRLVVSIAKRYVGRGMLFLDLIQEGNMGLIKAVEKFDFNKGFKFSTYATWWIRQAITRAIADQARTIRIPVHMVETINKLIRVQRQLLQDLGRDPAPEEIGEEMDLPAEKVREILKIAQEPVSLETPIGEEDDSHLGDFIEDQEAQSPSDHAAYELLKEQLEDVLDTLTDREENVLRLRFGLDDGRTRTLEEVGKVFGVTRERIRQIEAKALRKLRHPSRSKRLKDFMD
# Chain of S. aureus RNA polymerase core enzyme + S. aureus σA (P47768 whole entry): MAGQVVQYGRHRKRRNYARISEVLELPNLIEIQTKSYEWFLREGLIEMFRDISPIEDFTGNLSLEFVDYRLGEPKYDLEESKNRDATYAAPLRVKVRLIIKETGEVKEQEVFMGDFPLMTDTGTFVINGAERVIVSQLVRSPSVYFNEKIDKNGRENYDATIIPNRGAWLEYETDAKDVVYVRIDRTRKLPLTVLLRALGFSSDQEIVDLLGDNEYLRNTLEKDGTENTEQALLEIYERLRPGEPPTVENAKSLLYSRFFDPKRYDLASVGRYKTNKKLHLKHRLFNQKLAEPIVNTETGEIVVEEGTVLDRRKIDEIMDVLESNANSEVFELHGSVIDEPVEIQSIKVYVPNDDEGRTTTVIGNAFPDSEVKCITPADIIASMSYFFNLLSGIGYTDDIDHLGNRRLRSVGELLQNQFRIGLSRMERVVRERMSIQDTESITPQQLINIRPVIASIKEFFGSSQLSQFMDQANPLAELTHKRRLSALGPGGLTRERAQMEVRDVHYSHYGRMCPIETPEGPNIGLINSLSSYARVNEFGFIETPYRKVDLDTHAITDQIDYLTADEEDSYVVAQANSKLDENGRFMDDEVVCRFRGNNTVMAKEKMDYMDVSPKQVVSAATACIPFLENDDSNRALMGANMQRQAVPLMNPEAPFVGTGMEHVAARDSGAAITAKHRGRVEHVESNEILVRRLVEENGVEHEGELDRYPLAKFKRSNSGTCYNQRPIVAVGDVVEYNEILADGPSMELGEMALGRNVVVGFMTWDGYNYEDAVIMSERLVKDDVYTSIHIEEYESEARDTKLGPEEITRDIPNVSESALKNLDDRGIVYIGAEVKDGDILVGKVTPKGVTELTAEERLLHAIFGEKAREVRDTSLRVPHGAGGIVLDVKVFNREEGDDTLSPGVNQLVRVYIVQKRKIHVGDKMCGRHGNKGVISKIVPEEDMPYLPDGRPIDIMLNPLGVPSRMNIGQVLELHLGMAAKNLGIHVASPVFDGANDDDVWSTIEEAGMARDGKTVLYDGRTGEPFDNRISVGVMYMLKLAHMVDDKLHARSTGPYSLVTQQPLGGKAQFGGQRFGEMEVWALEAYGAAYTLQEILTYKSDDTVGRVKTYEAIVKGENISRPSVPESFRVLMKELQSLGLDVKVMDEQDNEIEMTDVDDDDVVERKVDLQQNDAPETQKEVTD
# Chain of S. aureus RNA polymerase core enzyme + S. aureus σA (Q2G0N5 whole entry): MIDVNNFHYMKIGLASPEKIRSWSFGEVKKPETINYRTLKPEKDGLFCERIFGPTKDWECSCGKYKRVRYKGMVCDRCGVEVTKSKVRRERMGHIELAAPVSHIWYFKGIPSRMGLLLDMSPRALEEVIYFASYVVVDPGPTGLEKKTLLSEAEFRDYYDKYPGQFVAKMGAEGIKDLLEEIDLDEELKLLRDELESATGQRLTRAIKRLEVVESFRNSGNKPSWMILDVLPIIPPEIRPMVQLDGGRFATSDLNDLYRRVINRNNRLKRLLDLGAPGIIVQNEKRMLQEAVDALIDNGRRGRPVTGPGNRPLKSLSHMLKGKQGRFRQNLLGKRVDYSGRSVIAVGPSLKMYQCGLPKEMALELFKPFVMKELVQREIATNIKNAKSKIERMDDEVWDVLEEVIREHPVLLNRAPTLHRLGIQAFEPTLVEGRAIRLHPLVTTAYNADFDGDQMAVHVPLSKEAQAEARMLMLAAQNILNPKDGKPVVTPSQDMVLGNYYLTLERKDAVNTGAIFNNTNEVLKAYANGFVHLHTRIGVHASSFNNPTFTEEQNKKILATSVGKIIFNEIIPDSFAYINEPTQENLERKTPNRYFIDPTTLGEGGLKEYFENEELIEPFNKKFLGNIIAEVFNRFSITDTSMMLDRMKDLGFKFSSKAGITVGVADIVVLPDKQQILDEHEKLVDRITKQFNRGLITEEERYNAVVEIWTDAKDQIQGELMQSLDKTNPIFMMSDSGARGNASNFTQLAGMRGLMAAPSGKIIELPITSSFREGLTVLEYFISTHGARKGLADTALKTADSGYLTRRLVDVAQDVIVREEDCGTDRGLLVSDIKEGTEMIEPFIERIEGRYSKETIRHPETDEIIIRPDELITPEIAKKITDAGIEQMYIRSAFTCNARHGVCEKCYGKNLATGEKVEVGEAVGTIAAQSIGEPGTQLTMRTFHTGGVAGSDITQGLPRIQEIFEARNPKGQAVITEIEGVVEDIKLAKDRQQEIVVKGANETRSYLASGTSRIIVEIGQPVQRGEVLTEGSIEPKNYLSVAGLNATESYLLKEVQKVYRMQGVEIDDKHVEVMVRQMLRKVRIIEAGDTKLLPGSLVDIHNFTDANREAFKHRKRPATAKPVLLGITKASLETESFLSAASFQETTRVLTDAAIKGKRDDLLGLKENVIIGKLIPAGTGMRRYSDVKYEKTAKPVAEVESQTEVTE
# Chain of S. aureus RNA polymerase core enzyme + S. aureus σA (Q2FW32 whole entry, further chain): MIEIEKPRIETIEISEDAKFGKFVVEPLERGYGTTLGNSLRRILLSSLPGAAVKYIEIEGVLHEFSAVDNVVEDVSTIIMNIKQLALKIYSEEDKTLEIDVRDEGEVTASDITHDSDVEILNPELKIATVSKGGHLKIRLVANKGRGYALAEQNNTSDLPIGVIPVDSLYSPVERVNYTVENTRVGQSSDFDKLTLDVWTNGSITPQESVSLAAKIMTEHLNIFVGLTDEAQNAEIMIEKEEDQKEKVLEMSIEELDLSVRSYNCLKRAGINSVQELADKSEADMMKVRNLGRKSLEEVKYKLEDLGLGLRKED
Structure (SMILES),IC50 [1],IC50 [2],IC50 [3],MIC [4],MIC [5],MIC (Burkholderia mallei CHN7),MIC [6],MIC [7],MIC [8],MIC [9],MIC [10],"MIC50 (H. influenzae 49247; Haemophilus influenzae, 49247, read-out: MIC50 H. influenzae 49247)",MIC [11],MIC (H. influenzae 49247)
"O=C(CCc1ccccc1Cl)c1c(O)cc(O)cc1O [0MTK11, 3-(2-chlorophenyl)propanoyl-phloroglucinol]",3.5 µM,2.5 µM,11 µM,6.25 µg/mL,3.12 µg/mL,50 µg/mL,> 50 µg/mL,16 µg/mL,> 40 µg/mL,8 µg/mL,> 40 µg/mL,35 µg/mL,> 40 µg/mL,
"O=C(CCc1cccc(Cl)c1)c1c(O)cc(O)cc1O [0MTK12, 3-(3-chlorophenyl)propanoyl-phloroglucinol]",2.6 µM,4.8 µM,9 µM,12.5 µg/mL,3.12 µg/mL,50 µg/mL,50 µg/mL,16 µg/mL,32 µg/mL,6 µg/mL,> 40 µg/mL,,> 40 µg/mL,> 40 µg/mL
"O=C(CCc1ccc(Cl)cc1)c1c(O)cc(O)cc1O [0MTK13, 3-(4-chlorophenyl)propanoyl-phloroglucinol]",1.1 µM,2.3 µM,4.3 µM,6.25 µg/mL,3.12 µg/mL,12.5 µg/mL,25 µg/mL,4 µg/mL,11 µg/mL,2.7 µg/mL,32 µg/mL,,32 µg/mL,32 µg/mL
"CCc1ccc(CCC(=O)c2c(O)cc(O)cc2O)cc1 [0MTK26, 3-(4-ethylphenyl)propanoyl-phloroglucinol]",1.5 µM,3.6 µM,5.4 µM,,,,,12.5 µg/mL,36 µg/mL,6.2 µg/mL,,,,
"CC(C)c1ccc(CCC(=O)c2c(O)cc(O)cc2O)cc1 [0MTK27, 3-(4-isopropylphenyl)propanoyl-phloroglucinol]",2.3 µM,4.9 µM,5.4 µM,,,,,9.8 µg/mL,16 µg/mL,4.3 µg/mL,,,,
"CC(C)(C)c1ccc(CCC(=O)c2c(O)cc(O)cc2O)cc1 [0MTK28, 3-((4-tert-butyl)phenyl)propanoyl-phloroglucinol]",2.7 µM,4.6 µM,6.4 µM,,,,,6.9 µg/mL,11 µg/mL,3 µg/mL,,,,
"Cc1cc(F)ccc1CCC(=O)c1c(O)cc(O)cc1O [0MTK30, 3-(4-fluoro-2-methylphenyl)propanoyl-phloroglucinol]",1.8 µM,3.7 µM,4.1 µM,,,,,16 µg/mL,26 µg/mL,7 µg/mL,,,,
"O=C(CCc1ccccc1C(F)(F)F)c1c(O)cc(O)cc1O [0MTK31, 3-(2-(trifluoromethyl)phenyl)propanoyl-phloroglucinol]",1.9 µM,3.5 µM,4.8 µM,,,,,14 µg/mL,22 µg/mL,6 µg/mL,,,,
"O=C(CCc1ccc(C(F)(F)F)cc1C(F)(F)F)c1c(O)cc(O)cc1O [0MTK32, 3-(2,4-bis(trifluoromethyl)phenyl)propanoyl-phloroglucinol]",2 µM,3.3 µM,3.7 µM,,,,,3.6 µg/mL,6.6 µg/mL,2.2 µg/mL,,,,
"COc1ccccc1CCC(=O)c1c(O)cc(O)cc1O [OMTK14, 3-(2-methoxyphenyl)propanoyl-phloroglucinol]",2.7 µM,9.9 µM,7.2 µM,25 µg/mL,12.5 µg/mL,> 50 µg/mL,> 50 µg/mL,> 40 µg/mL,> 40 µg/mL,12 µg/mL,> 40 µg/mL,,> 40 µg/mL,> 40 µg/mL
"COc1cccc(CCC(=O)c2c(O)cc(O)cc2O)c1 [OMTK15, 3-(3-methoxyphenyl)propanoyl-phloroglucinol]",3 µM,3 µM,7.2 µM,25 µg/mL,12.5 µg/mL,> 50 µg/mL,50 µg/mL,> 40 µg/mL,> 40 µg/mL,12 µg/mL,> 40 µg/mL,,> 40 µg/mL,> 40 µg/mL
"Cc1ccccc1CCC(=O)c1c(O)cc(O)cc1O [OMTK18, 3-(2-methylphenyl)propanoyl-phloroglucinol]",2.7 µM,3.9 µM,7.9 µM,,,,,> 40 µg/mL,> 40 µg/mL,11 µg/mL,,,,
"O=C(CCc1ccc(F)cc1)c1c(O)cc(O)cc1O [OMTK21, 3-(4-fluorophenyl)propanoyl-phloroglucinol]",2.4 µM,4.4 µM,7.2 µM,,,,,> 40 µg/mL,> 40 µg/mL,10 µg/mL,,,,
"O=C(CCc1ccc(Br)cc1)c1c(O)cc(O)cc1O [OMTK22, 3-(4-bromophenyl)propanoyl-phloroglucinol]",1.3 µM,1.7 µM,3.7 µM,,,,,10 µg/mL,22 µg/mL,5 µg/mL,,,,
"O=C(CCc1ccc(C(F)(F)F)cc1)c1c(O)cc(O)cc1O [OMTK23, 3-(4-trifluoromethylphenyl)propanoyl-phloroglucinol]",1.6 µM,2.3 µM,4.8 µM,,,,,12 µg/mL,25 µg/mL,5 µg/mL,,,,
